Test results published in patent US20230382862A1, “ERG ONCOGENE INHIBITORS” (The Henry M. Jackson Foundation for the Advancement of …, priority 2020, published 2023).

Assays:
RIOK2 = target: T1, RIOK2 (Homo sapiens, UniProt Q9BVS4); assay: RIOK2 levels in endothelial-derived primary cells (HUVEC); type: cell-based; conditions: within effective concentration range observed in VCaP, data not shown
T1 construct: endogenous in cells; host or cells: HUVEC primary endothelial cells (ATCC)
Protocol: (§1) TMPRSS2-ERG fusion positive ERG oncoprotein expressing prostate cancer cell line VCaP, was obtained from the American Tissue Culture Collection (ATCC; Manassas, Va.). The cells were grown in ATCC-recommended cell culture media under cell growth promoting conditions as recommended by the supplier (DMEM media; Gibco, Grand island, NY) supplemented with 10% fetal bovine serum (ATCC; Manassas, Va.). Normal primary endothelial cells, HUVEC-human umbilical vein endothelial cells, were also obtained from ATCC (Endothelial cell media; Cell biologics, Chicago, Ill.) supplemented with 10% FBS) as recommended by the supplier. The passage number of cell lines used in this study ranges from 1 to 6.
(§2) ERG protein is naturally expressed in endothelial cells.

VCaP cells = assay: VCaP cell growth inhibition / cell viability (Cell Titer-Glo); type: cell-based; conditions: Homo sapiens, 96 h
Protocol: TMPRSS2-ERG fusion positive ERG oncoprotein expressing prostate cancer cell line VCaP, was obtained from the American Tissue Culture Collection (ATCC; Manassas, Va.). The cells were grown in ATCC-recommended cell culture media under cell growth promoting conditions as recommended by the supplier (DMEM media; Gibco, Grand island, NY) supplemented with 10% fetal bovine serum (ATCC; Manassas, Va.). […] The passage number of cell lines used in this study ranges from 1 to 6.
48 hours following plating of cells, the appropriate test compound is added to each well of the tissue culture dish at concentrations (0, 0.001, 0.005, 0.01, 0.05, 0.10, 0.15, 0.2, 0.25, 0.3, 0.35, 0.4) μM/per well). The medium was replenished every 24 hours with fresh growth medium containing the same concentration of the same test compound for indicated period of the cell growth inhibition assay for 96 hours. At the end of the treatment the cells were analyzed for viability by labeling for ATPase activity. Cell growth were calculated by measuring bioluminescence using Cell Glow ATPase assay with Cell Titer-Glo luminescent cell viability assay (Promega, Madison, Wis.) detected by the HT Envision System (PerkinElmer, Waltham, Mass.). The average viable cell numbers of each concentration in triplicates were used to calculate the IC50 of each compound with the GraphPad Prism 7 software. […]

HUVEC cells = assay: Growth of endothelial-derived primary cells (HUVEC); type: cell-based, human; conditions: within effective concentration range observed in VCaP, data not shown
Protocol: as §1, §2

T1 sequence (Q9BVS4 whole entry): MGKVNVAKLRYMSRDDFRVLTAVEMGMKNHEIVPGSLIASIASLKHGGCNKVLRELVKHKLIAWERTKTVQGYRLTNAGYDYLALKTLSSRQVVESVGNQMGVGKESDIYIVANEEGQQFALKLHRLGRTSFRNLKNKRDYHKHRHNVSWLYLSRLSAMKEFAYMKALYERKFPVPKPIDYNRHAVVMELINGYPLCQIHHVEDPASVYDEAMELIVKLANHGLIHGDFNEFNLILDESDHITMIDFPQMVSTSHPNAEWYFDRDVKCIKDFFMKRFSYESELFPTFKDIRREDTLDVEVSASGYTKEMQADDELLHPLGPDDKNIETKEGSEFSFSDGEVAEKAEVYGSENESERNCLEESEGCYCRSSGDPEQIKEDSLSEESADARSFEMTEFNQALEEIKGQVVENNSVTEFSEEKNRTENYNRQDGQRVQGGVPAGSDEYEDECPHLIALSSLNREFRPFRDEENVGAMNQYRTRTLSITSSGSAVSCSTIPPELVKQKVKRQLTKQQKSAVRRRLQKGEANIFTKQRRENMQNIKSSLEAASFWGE

effect on RIOK2 levels of endothelial-derived primary cells (RIOK2): did not effect | IC50 (VCaP cells): 89 nM
SMILES: CN(C)c1ccc(N=Nc2ccccn2)c(O)c1.CS(=O)(=O)O [Compound 2, 5-(dimethylamino)-2-(pyridin-2-yldiazenyl)phenol, methanesulfonic acid (1:1)]
effect on growth of endothelial-derived primary cells (HUVEC cells): did not effect
